Reference: patent US10493126B2, “Combination therapy for ameliorating adverse side effects caused by chemotherapy” (YEASTERN BIOTECH CO., LTD, priority 2014, dated 2019)
Several values for one entry are separate records, joined by “and”; a condition that tells them apart may be missing. Equal entries are not always repeated.

Assays:
BALB/cByJNarl mice [1] = assay: Bone marrow adipogenesis in tibia, H&E histology, Docetaxel mice model; assay type: in vivo; settings: FIG. 4A/4B, compared to the Control
Description: (§1) Male BALB/cByJNarl mice (6-8 weeks old) were purchased from National Laboratory Animal Center (NLAC) in Taiwan and randomly divided into four groups, with five mice in Groups Docetaxel+PBS, Docetaxel+FIP-fve and Docetaxel+FIP-gts each and four in Control group. The mice were housed under pathogen-free conditions with a 12-hour light/12-hour dark schedule, and fed an autoclaved diet with ad libitum access to standard rodent chow (Laboratory Rodent Diet 5001, LabDiet, St. Louis, Mo., USA). Three days before the administration of Docetaxel (namely, Day-3), the mice in the Docetaxel+PBS Group started to be fed phosphate-buffered saline (PBS) at 100 μL/animal/day, and the daily feeding of PBS continued throughout the experiment. The mice were injected intravenously in the tail vein with Taxotere® (Aventis Pharma Ltd., Dagenham, UK) at a dose of 30 mg/kg body weight on Days 1, 8 and 15. […]
Tibiae were separated from right hind limbs of the mice and defleshed. […] The tibia samples were sent to the Taiwan Mouse Clinic, funded by the National Research Program for Biopharmaceuticals (NRPB) of the National Science Council (NSC) in Taiwan, where the samples were scanned by applying three-dimensional micro-computed tomography (micro CT) in a high-resolution low-dose X-ray scanner (SkyScan 1076, Aartselaar, Belgium) and assessed for trabecular bone micro-architecture. […]

BALB/cByJNarl mice [2] = assay: Structural integrity of jejunal villus, H&E histology, Docetaxel mice model; assay type: in vivo; settings: mice jejunum, FIG. 2A/2B
Description: as §1, with “15. The Docetaxel+FIP-fve and Docetaxel+FIP-gts Groups were administered Taxotere® at the same dose on the same days as described above.” for “15.”
Intestinal samples from the jejunum of the sacrificed mice were fixed in 10% formalin and embedded in paraffin wax. […] The histological images of villi appeared in the intestinal samples are shown in FIG. 2A, and the lengths of villi measured by an NIS-Elements D 3.2 image analysis system (Nikon, Japan) were shown in FIG. 2B.

BALB/cByJNarl mice [3] = assay: Complete blood count in Docetaxel mice model; assay type: in vivo
Description: (§2) Male BALB/cByJNarl mice (6-8 weeks old) were purchased from National Laboratory Animal Center (NLAC) in Taiwan and randomly divided into four groups, with five mice in Groups Docetaxel+PBS, Docetaxel+FIP-fve and Docetaxel+FIP-gts each and four in Control group. The mice were housed under pathogen-free conditions with a 12-hour light/12-hour dark schedule, and fed an autoclaved diet with ad libitum access to standard rodent chow (Laboratory Rodent Diet 5001, LabDiet, St. Louis, Mo., USA). Three days before the administration of Docetaxel (namely, Day-3), the mice in the Docetaxel+PBS Group started to be fed phosphate-buffered saline (PBS) at 100 μL/animal/day, and the daily feeding of PBS continued throughout the experiment. The mice were injected intravenously in the tail vein with Taxotere® (Aventis Pharma Ltd., Dagenham, UK) at a dose of 30 mg/kg body weight on Days 1, 8 and 15. The Docetaxel+FIP-fve and Docetaxel+FIP-gts Groups were administered Taxotere® at the same dose on the same days as described above. Additionally, the two treatment groups daily received 100 μL PBS added with either 200 μg FIP-fve or 400 μg FIP-gts throughout the experiment starting from Day-3 until the end of the experiment (Day 18). The FIP-gts protein used in this and other Examples disclosed herein was produced according to the method disclosed in WO2005040375A1. The FIP-fve protein used herein was purified from F. velutipes by the method disclosed in Ko J. L., Eur. J. Biochem. 1995; 228:244-249. The mice of the Control Group were given with PBS alone at 100 μL/animal/day without being injected with anti-cancer agent. Blood was sampled from the orbital sinus of the mice on days 4, 11 and 18 for subsequent analysis. The animals were sacrificed by CO2 asphyxiation on day 18. The protocol of the experiment is illustrated in FIG. 1.

BALB/cByJNarl mice [4] = assay: Micro CT of tibia, trabecular bone micro-architecture, Docetaxel mice model; assay type: in vivo; settings: for porosity of knee, distal femur and proximal tibia samples, in words: FIG. 3B/3C, versus the mice group injected with Docetaxel alone
Description: as §2
Tibiae were separated from right hind limbs of the mice and defleshed. Afterwards, individual tibiae were placed into 15 mL Falcons conical centrifuge tubes (Becton, Dickinson and Company, Franklin Lakes, N.J., USA) and covered with 70% ethanol. The tibia samples were sent to the Taiwan Mouse Clinic, funded by the National Research Program for Biopharmaceuticals (NRPB) of the National Science Council (NSC) in Taiwan, where the samples were scanned by applying three-dimensional micro-computed tomography (micro CT) in a high-resolution low-dose X-ray scanner (SkyScan 1076, Aartselaar, Belgium) and assessed for trabecular bone micro-architecture. For histological analysis, some tibia samples were demineralized in 10% EDTA for two weeks, dehydrated in graded ethanol solutions and embedded in paraffin wax using a Leica ASP300S tissue processor (Leica Microsystems Nussloch GmbH). Deparaffinized sections were stained with hematoxylin and eosin (H&E staining) and then observed under microscope.

human lymphocytes = settings: 3H-thymidine, compared to PHA; cited from earlier work
[5] = tested on: human patients with stage III or IV lung cancer; assay: Clinical study: FIP-gts tablets with Taxotere and cisplatin/carboplatin; assay type: in vivo; design: key to ECOG: 0: Asymptomatic (Fully active, able to carry on all pre-disease activities without restriction); 1: Symptomatic but completely ambulatory (Restricted in physically strenuous activity but ambulatory and able to carry out work of a light or sedentary nature. For example, light housework, office work); 2: Symptomatic, <50% in bed during the day (Ambulatory and capable of all self care but unable to carry out any work activities. Up and about more than 50% of waking hours); 3: Symptomatic, >50% in bed, but not bedbound (Capable of only limited self-care, confined to bed or chair 50% or more of waking hours); 4: Bedbound (Completely disabled. Cannot carry on any self-care. Totally confined to bed or chair); 5: Death; settings: columns = course days; for Hb: in g/dL (unit assumed); for Cr.: in mg/dL (unit assumed)
Description: The inventors further conducted a clinical study on diminished quality of life (QOL) and cancer-related fatigue (CRF) caused by chemotherapy. The QOL and CRF of selected human patients were evaluated by the Eastern Cooperative Oncology Group (ECOG) Performance Status Scale from 0 to 5 (Oken M. M., et al., Am. J. Clin. Oncol.; 1982, 5(6): 649-55), where each grade represents:
Five human patients with stage III or IV lung cancer were enrolled in this study. During the study, each patient was administered Taxotere® at either a low dose of 20-30 mg/m^2 or a high dose of 60-69 mg/m^2 in conjunction with cisplatin/carboplatin on the designated days as prescribed by the physician, and received daily two tablets of FIP-gts (3 mg/tablet). The patients were asked to come back to the hospital on the designated days for follow up at the clinic and collection of blood samples. The patients were assessed for quality of life and fatigue according to the ECOG performance status system described above. The medical records of the five patients, as well as the administration regimens for the patients, were illustrated in Tables III.A-III.E below.

[6] = Docetaxel 30 mg/kg i.v. Days 1, 8, 15, daily FIP-fve 200 μg or FIP-gts 400 μg in 100 μL PBS from Day -3, Day 18
[7] = mice tibia, micro CT, Day 18, Docetaxel 30 mg/kg i.v., FIP-fve 200 μg or FIP-gts 400 μg daily
[8] = Patient Case 3, Taxotere + cisplatin + daily FIP-gts, chemotherapy course 1, April
[9] = Patient Case 3, Taxotere + cisplatin + daily FIP-gts, chemotherapy course 2, May 10
[10] = Patient Case 3, Taxotere + cisplatin + daily FIP-gts, chemotherapy course 3, May
[11] = Patient Case 4, low dose Taxotere + cisplatin/carboplatin + daily FIP-gts
[12] = Patient Case 4, low dose Taxotere + cisplatin/carboplatin + daily FIP-gts, in U/L (unit assumed)

With `CC(=O)O[C@@]12CO[C@@H]1C[C@H](O)[C@@]1(C)C(=O)[C@H](O)C3=C(C)[C@@H](OC(=O)[C@H](O)[C@@H](NC(=O)OC(C)(C)C)c4ccccc4)C[C@@](O)([C@@H](OC(=O)c4ccccc4)[C@H]21)C3(C)C` [Docetaxel, (2R,3S)-N-carboxy-3-phenylisoserine, N-tert-butyl ester, 13-ester with 5, 20-epoxy-1,2,4,7, 10, 13-hexahydroxytax-11-en-9-one 4-acetate 2-benzoate, trihydrate] the “adipogenesis in tibia bone marrow, in words” value (BALB/cByJNarl mice [1]) was “increase in marrow adipose tissue”, the “structural integrity of villi, in words” value (BALB/cByJNarl mice [2]) was “severely damaged and blunted” and the HCT (BALB/cByJNarl mice [3]; [6]) was 39.94 ± 1.19%. For the same molecule, the HGB (BALB/cByJNarl mice [3]; [6]) was 11.77 ± 0.31 g/dL, the MCH (BALB/cByJNarl mice [3]; [6]) was 15.00 ± 0.16 pg and the MCHC (BALB/cByJNarl mice [3]; [6]) was 29.48 ± 0.05 g/dL. The MCV (BALB/cByJNarl mice [3]; [6]) was 50.82 ± 0.49 fL, the MPV (BALB/cByJNarl mice [3]; [6]) was 6.71 ± 0.17 fL and the PLT (BALB/cByJNarl mice [3]; [6]) was 317.88 ± 60.27 10^3/μL. For the same molecule, the RBC (BALB/cByJNarl mice [3]; [6]) was 7.86 ± 0.24 ×10^6/μL, the RDW (BALB/cByJNarl mice [3]; [6]) was 29.26 ± 0.73 fL and the WBC (BALB/cByJNarl mice [3]; [6]) was 3.29 ± 0.80 ×10^3/μL. For the same molecule, the “levels of white blood cells (WBC), red blood cells (RBC), hemoglobin (HGB), hematocrit (HCT) and platelets (PLT), in words” value (BALB/cByJNarl mice [3]; Docetaxel alone compared with the Control group) was “considerable reduction”, the “Bone surface density BS/TV” value (BALB/cByJNarl mice [4]; [7]) was 3.852 1/U and the “Percent bone volume BV/TV” value (BALB/cByJNarl mice [4]; [7]) was 5.634%. For the same molecule, the “Structure model index SMI” value (BALB/cByJNarl mice [4]; [7]) was 2.1757, the “Trabecular number Tb.N” value (BALB/cByJNarl mice [4]; [7]) was 0.8566 1/U and the “Trabecular separation Tb.Sp” value (BALB/cByJNarl mice [4]; [7]) was 0.5623 U. The “Trabecular thickness Tb.Th” value (BALB/cByJNarl mice [4]; [7]) was 0.06577 U, the “structural integrity of the tibia, in words” value (BALB/cByJNarl mice [4]; micro CT, FIG. 3A, compared to the Control Group) was “much more osteo-porous than the Control” and the “Docetaxel-induced osteoporosis, in words” value (BALB/cByJNarl mice [4]; tibia samples, from trabecular number, percent bone volume, trabecular separation) was “induction of osteoporosis”.

For “FIP-gts: fungal immunomodulatory protein of Ganoderma tsugae, SEQ ID NO: 1, produced according to WO2005040375A1; 3 mg tablets in the clinical study”, the “concentration sufficient to reach the maximum proliferation of human lymphocytes” value (human lymphocytes) is given as 5 µg/mL, the “WBC level, in words” value (BALB/cByJNarl mice [3]; co-treatment with Docetaxel) is given as “remarkably restored the WBC level to its control value” and the ECOG ([5]; Patient Case 1, Taxotere + cisplatin/carboplatin + daily FIP-gts) is given as 1. For the same molecule, the ECOG ([5]; Patient Case 2, Taxotere + cisplatin/carboplatin + daily FIP-gts) was 1, the ECOG ([5]; Patient Case 3, Taxotere + cisplatin + daily FIP-gts) was 0 and the AST ([5]; Patient Case 3, Taxotere + cisplatin + daily FIP-gts, in U/L (unit assumed), chemotherapy course 1, April) was 14. The AST ([5]; Patient Case 3, Taxotere + cisplatin + daily FIP-gts, in U/L (unit assumed), chemotherapy course 2, May 10) was 13, the AST ([5]; Patient Case 3, Taxotere + cisplatin + daily FIP-gts, in U/L (unit assumed), chemotherapy course 3, May) was 15 and the Hb [5, 8] was 14.9. For the same molecule, the Hb [5, 9] was 13.9, the Hb [5, 10] was 12 and the Cr. [5, 8] was 1.09. The Cr. [5, 9] was 0.94, the Cr. [5, 10] was 0.86 and the ECOG [5, 11] was 1. The ALT [5, 12] was 10 and 9, the AST [5, 12] was 18 and 13 and 15 and the Hb [5, 11] was 11.2 and 10 and 8.6 and 9.5 and 9.6 and 8.9. The Cr. [5, 11] was 0.8 and 0.89 and 1.15, the ECOG ([5]; Patient Case 5, low dose Taxotere + cisplatin + daily FIP-gts) was 0 and the “porosity of knee, distal femur and proximal tibia samples, in words” value (BALB/cByJNarl mice [4]; micro CT) was “considerably less porous”.

B1: FIP-fve: fungal immunomodulatory protein purified from F. velutipes, SEQ ID NO: 2 (protein)
chain: SATSLTFQLAYLVKKIDFDYTPNWGRGTPSSYIDNLTFPKVLTDKKYSYRVVVNGSDLGVESNFAVTPSGGQTINFLQYNKGYGVADTKTIQVFVVIPDTGNSEEYIIAEWKKT
modifications: Flammulina Velutipes
For B1, the “concentration sufficient to reach the maximum proliferation of human lymphocytes” value (human lymphocytes) is given as 100 µg/mL, the “HGB and PLT levels, in words” value (BALB/cByJNarl mice [3]; reduction caused by Docetaxel) is given as “lessened the reduction” and the “porosity of knee, distal femur and proximal tibia samples, in words” value (BALB/cByJNarl mice [4]; micro CT) is given as “considerably less porous”.
